Experimental data: patent US9533985B2, “Sulfonamide derivative and medicinal use thereof” (EA Pharma Co., Ltd., priority 2012, dated 2017)

Legend:
Format in all cases: cell-based
α4β1 integrin = α4β1 integrin (Homo sapiens (Human), UniProt P05556+P13612); assay: VCAM-1/α4β1 integrin binding inhibitory activity evaluation test (Jurkat cell adhesion to VCAM-1/Fc); settings: Jurkat cells binding to recombinant human VCAM-1/Fc
Outline: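 Jurkat cells (5×10^5/well) added with compounds to plates coated with recombinant human VCAM-1/Fc (1 μg/mL coating), in DMEM binding buffer with 40 mM HEPES, 0.2% BSA and 4 mM MnCl2, 15-60 min at 30° C. Bound cells lysed and quantified by LDH absorbance at 490 nm; IC50 relative to compound-free wells, in duplicate.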

α4β7 integrin [1] = target: T1, α4β7 integrin (Homo sapiens (Human), UniProt P13612+P26010); assay: MAdCAM-1/α4β7 integrin binding inhibitory activity evaluation test in the presence of serum (1); settings: RPMI-8866 cells binding to mouse MAdCAM-1/Fc, human serum at final concentration of 50%; read-out: α4β7 with serum added, IC50
T1 sequence (P13612 34-1032): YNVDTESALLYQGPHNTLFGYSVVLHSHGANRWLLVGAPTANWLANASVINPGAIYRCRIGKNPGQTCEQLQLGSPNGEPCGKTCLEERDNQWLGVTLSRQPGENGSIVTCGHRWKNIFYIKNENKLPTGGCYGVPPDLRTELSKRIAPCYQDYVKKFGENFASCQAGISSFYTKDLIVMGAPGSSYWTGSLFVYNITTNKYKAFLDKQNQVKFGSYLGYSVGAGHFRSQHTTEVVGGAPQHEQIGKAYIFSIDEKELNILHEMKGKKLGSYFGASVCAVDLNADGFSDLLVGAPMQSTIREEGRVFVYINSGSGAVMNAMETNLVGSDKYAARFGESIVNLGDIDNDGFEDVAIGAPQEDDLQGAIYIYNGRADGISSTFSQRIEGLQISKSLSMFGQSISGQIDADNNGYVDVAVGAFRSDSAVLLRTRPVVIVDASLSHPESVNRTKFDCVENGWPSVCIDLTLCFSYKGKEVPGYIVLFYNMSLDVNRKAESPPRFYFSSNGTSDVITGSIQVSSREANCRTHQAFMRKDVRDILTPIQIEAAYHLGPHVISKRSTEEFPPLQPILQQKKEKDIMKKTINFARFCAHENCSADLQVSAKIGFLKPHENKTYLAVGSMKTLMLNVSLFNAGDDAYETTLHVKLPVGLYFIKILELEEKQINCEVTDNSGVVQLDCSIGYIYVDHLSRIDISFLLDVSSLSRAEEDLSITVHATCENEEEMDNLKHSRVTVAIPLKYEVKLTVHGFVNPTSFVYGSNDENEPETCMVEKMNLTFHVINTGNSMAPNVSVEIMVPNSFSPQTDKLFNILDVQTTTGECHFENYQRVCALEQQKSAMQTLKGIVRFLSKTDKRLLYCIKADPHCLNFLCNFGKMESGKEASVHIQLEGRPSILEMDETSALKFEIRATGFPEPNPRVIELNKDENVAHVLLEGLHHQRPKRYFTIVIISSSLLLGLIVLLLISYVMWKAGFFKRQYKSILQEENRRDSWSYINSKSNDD
T1 sequence (P26010 20-798): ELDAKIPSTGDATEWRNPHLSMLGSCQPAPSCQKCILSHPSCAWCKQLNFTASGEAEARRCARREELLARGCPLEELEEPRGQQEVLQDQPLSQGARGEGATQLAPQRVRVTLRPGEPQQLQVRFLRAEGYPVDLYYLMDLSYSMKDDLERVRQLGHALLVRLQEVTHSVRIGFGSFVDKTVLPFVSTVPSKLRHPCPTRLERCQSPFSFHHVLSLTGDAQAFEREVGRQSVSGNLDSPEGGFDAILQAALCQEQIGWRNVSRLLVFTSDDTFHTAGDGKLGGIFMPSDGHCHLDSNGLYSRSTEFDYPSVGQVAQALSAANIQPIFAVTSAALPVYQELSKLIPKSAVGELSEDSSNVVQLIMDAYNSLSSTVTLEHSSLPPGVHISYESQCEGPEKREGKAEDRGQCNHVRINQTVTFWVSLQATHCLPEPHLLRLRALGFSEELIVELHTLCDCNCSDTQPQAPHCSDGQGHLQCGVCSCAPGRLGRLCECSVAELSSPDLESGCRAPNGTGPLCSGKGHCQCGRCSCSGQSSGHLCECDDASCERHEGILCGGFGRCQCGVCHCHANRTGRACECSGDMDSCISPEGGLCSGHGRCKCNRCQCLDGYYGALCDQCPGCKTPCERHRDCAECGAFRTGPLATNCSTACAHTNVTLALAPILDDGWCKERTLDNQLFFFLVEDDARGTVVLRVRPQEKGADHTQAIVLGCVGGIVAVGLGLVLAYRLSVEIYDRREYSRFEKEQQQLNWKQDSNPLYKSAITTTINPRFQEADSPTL
Outline: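 Plates were coated with recombinant mouse MAdCAM-1/Fc (1 μg/mL, pH 9.6). Human RPMI-8866 B cells (α4β7-expressing) bound for 15–60 min at 30 °C in DMEM/HEPES/BSA with 4 mM MnCl2 and 50% human serum, with test substance present. Bound cells were quantified by LDH absorbance at 490 nm, run in duplicate, and IC50 was calculated relative to no-compound wells.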

α4β7 integrin [2] = target: T1, α4β7 integrin; assay: MAdCAM-1/α4β7 integrin binding inhibitory activity evaluation test (RPMI-8866 cell adhesion to MAdCAM-1/Fc); settings: for Selectivity: IC50 in VCAM-1/α4β1 test divided by IC50 in MAdCAM-1/α4β7 test; for IC50: RPMI-8866 cells binding to recombinant mouse MAdCAM-1/Fc, no serum
Outline: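 Human RPMI-8866 cells (α4β7+) adhered for 15–60 min at 30 °C to plates coated with recombinant mouse MAdCAM-1/Fc, in DMEM binding buffer with 4 mM MnCl2 and test compound. Bound cells were quantified via LDH activity (A490) after lysis. IC50 is the 50% inhibition of binding relative to compound-free wells.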

α4β1 integrin, sequence (P13612 34-1032): as the sequence (P13612 34-1032) above
α4β1 integrin, sequence (P05556 21-798): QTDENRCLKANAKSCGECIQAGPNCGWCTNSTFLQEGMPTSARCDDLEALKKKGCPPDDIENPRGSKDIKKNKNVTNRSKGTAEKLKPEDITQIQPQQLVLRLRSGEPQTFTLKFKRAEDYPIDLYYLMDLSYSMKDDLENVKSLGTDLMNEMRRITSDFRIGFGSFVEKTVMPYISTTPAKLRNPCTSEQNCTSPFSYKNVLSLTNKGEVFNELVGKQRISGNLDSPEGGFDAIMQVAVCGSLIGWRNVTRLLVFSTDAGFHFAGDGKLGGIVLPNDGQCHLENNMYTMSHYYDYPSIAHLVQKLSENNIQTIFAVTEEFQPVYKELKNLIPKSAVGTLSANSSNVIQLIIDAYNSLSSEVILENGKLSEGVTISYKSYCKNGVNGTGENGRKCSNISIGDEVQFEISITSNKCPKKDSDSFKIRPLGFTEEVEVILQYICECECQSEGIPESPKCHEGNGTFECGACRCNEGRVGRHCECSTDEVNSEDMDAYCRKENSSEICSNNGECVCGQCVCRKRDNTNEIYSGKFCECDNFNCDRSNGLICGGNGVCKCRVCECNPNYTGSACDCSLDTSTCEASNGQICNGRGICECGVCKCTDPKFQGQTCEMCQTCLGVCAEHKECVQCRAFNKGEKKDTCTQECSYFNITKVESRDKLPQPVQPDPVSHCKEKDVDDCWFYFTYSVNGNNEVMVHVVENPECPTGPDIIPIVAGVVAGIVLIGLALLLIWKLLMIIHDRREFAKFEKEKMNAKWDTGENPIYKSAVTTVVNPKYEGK

Row | SMILES | IC50 (α4β1 integrin) [nM] | IC50 (α4β7 integrin [1]) [nM] | Selectivity (α4β7 integrin [2]) | IC50 (α4β7 integrin [2]) [nM]
1 | Cn1ccc(=O)n(-c2ccc(C[C@H](NC(=O)c3c(F)cc(NS(=O)(=O)c4ccc(-c5ncccn5)cn4)cc3F)C(=O)O)cc2)c1=O [Example 40, N-(2,6-Difluoro-4-{[(5-pyrimidin-2-yl-pyridin-2-yl)sulfonyl]amino}benzoyl)-4-(3-methyl-2,6-dioxo-3,6-dihydropyrimidin-1(2H)-yl)-L-phenylalanine] | 210 | 8.7 | 290 | 0.73
2 | Cn1c(=O)n(-c2ccc(C[C@H](NC(=O)c3c(F)cc(NS(=O)(=O)c4ccc(-c5ccncc5)nc4)cc3F)C(=O)O)cc2)c(=O)c2ccncc21 [Example 42, N-{4-[(2,4′-Bipyridin-5-yl-sulfonyl)amino]-2,6-difluorobenzoyl}-4-(1-methyl-2,4-dioxo-1,4-dihydropyrido[3,4-d]pyrimidin-3(2H)-yl)-L-phenylalanine] | 52 | 8.8 | 190 | 0.27
3 | Cn1cnc2c1c(=O)n(-c1ccc(C[C@H](NC(=O)c3c(F)cc(NS(=O)(=O)c4ccc(-n5cccc5)cc4)cc3F)C(=O)O)cc1)c(=O)n2C [Example 76, N-[2,6-Difluoro-4-({[4-(1H-pyrrol-1-yl)phenyl]sulfonyl}amino)benzoyl]-4-(3,7-dimethyl-2,6-dioxo-2,3,6,7-tetrahydro-1H-purin-1-yl)-L-phenylalanine] | 910 | 22 | 410 | 2.2
4 | Cn1c(=O)n(-c2ccc(C[C@H](NC(=O)c3c(F)cc(NS(=O)(=O)c4ccc(-n5cccc5)cc4)cc3F)C(=O)O)cc2)c(=O)c2ccncc21 [Example 43, N-[2,6-Difluoro-4-({[4-(1H-pyrrol-1-yl)phenyl]sulfonyl}amino)benzoyl]-4-(1-methyl-2,4-dioxo-1,4-dihydropyrido[3,4-d]pyrimidin-3(2H)-yl)-L-phenylalanine] | 220 | 12 | 240 | 0.9
5 | Cn1c(=O)n(-c2ccc(C[C@H](NC(=O)c3c(F)cc(NS(=O)(=O)c4ccc(-c5ccncc5)cc4)cc3F)C(=O)O)cc2)c(=O)c2ccncc21 [Example 67, N-(2,6-Difluoro-4-{[(4-pyridin-4-yl-phenyl)sulfonyl]amino}benzoyl)-4-(1-methyl-2,4-dioxo-1,4-dihydropyrido[3,4-d]pyrimidin-3(2H)-yl)-L-phenylalanine] | 210 | 11 | 380 | 0.55
6 | Cn1c(=O)n(-c2ccc(C[C@H](NC(=O)c3c(F)cc(NS(=O)(=O)c4ccc(-c5ccoc5)cc4)cc3F)C(=O)O)cc2)c(=O)c2ccncc21 [Example 66, N-[2,6-Difluoro-4-({[4-(3-furyl)phenyl]sulfonyl}amino)benzoyl]-4-(1-methyl-2,4-dioxo-1,4-dihydropyrido[3,4-d]pyrimidin-3(2H)-yl)-L-phenylalanine] | 280 | 24 | 180 | 1.6
7 | Cn1ccc(=O)n(-c2ccc(C[C@H](NC(=O)c3c(F)cc(NS(=O)(=O)c4ccc(-n5ccnn5)cn4)cc3F)C(=O)O)cc2)c1=O [Example 73, N-[2,6-Difluoro-4-({[5-(1H-1,2,3-triazol-1-yl)pyridin-2-yl]sulfonyl}amino)benzoyl]-4-(3-methyl-2,6-dioxo-3,6-dihydropyrimidin-1(2H)-yl)-L-phenylalanine] | 410 | 6.5 | 430 | 0.95
8 | CNCc1ccc(S(=O)(=O)Nc2ccc(C(=O)N[C@@H](Cc3ccc(-n4c(=O)c5ccncc5n(C)c4=O)cc3)C(=O)O)c(F)c2)cc1 [Example 52, N-{2-Fluoro-4-[({4-[(methylamino)methyl]phenyl}sulfonyl)amino]benzoyl}-4-(1-methyl-2,4-dioxo-1,4-dihydropyrido[3,4-d]pyrimidin-3(2H)-yl)-L-phenylalanine] | 550 | 13 | 210 | 2.6
